The subject of one assay is PBMCs. Kind of assay: TNFα production by PBMCs with antigen-expressing tumor cells (AlphaLISA). It is filed as cell-based, human. The conditions noted are these: PBMCs with SKBR3 tumor cells (HER2), 24 hours, FIG. 20. The protocol:
Anti-HER2-antiCD40 G1 antibody was prepared as described in Example 18. Pertuzumab was used as the HER2 G1WT antibody. Conjugates were prepared as generally described in Example 15. PBMCs were isolated from human blood as described above. Briefly, PBMCs were isolated by Ficoll gradient centrifugation, resuspended in RPMI, and plated in 96-well flat bottom microtiter plates (125,000/well). Antigen-expressing tumor cells were then added (25,000/well) along with titrating concentrations of conjugates or unconjugated parental antibodies as controls. After overnight culture, supernatants were harvested, and TNFα levels were determined by AlphaLISA.
Referring to FIG. 20, SKBR3 tumor cells were added to PBMCs, prepared as described above. SKBR3 tumor cells express the tumor antigen HER2. Anti-HER2 TLR8 benzazepine agonist conjugates, either monospecific or bispecific with CD40, and conjugated to various TLR8 benzazepine agonists were added. The immune-stimulatory compound-linkers in the conjugates used in the study are identified in TABLES 30 and 31.
A general note: Alpha assays give light when donor and acceptor beads are brought close together.

A further assay relates to monocytes. Kind of assay: TNFα production by monocytes with or without tumor cells (AlphaLISA). It is filed as cell-based, human. The following applies: monocytes with CEA-expressing CHO cells, FIG. 22. How it is done:
Monocytes were prepared as follows: PBMCs were isolated from normal human blood using Ficoll purification, and monocytes were enriched from the PBMCs using Stem Cell Technologies Human Monocyte without CD16 Depletion Negative Selection Kits according to the manufacturer's instructions. Monocytes were then slowly frozen and stored in liquid nitrogen. Prior to assay monocytes were thawed and rested overnight at 37° C. in 5% CO2 in assay media (RPMI 1640 media supplemented with 10% FBS, […], 1 mM HEPES, 1× non-essential amino acids, 0.1 mM sodium pyruvate). The following day, monocytes were plated at 4×10^4 cell/well with or without tumor cells at 4×10^4 cell/well in 96-well flat bottom plates in assay media described above. After overnight culture, supernatants were harvested, and TNFα levels were determined by AlphaLISA.

For the substance “Pertuzumab [HER2 G1WT, reference compound]”, the TNFα production result with PBMCs is “did not stimulate TNFα production”; with monocytes, “only the CEA conjugate exhibited activity”.

(Values after US20190336615A1, “TUMOR TARGETING CONJUGATES AND METHODS OF USE THEREOF” (SILVERBACK THERAPEUTICS, INC., priority 2017, published 2019).)
